Activity calls are given as the source filed them. No cut-off for these calls is given here.
Columns and labels:
U2OS [1] = experiment: Induction of DNA damage in human U2OS cells assessed as increase in 53BP1 foci by Immunofluorescence based FISH assay; type: functional, cell-based; settings: dose 2-4 µM
MG-63 [2] = experiment: Induction of apoptosis in human MG-63 cells assessed as necrotic cells at 2 uM measured after 48 hrs annexin-V and propidium iodide staining based flow cytometry analysis (reference value: 0.52%); type: functional
[3] = Acute toxicity in mouse assessed as change in weight of liver at 30 to 90 mg/kg, po single dose measured for 7 days; type: organism-based; settings: in vivo, 168 h, dose 30-90 mg/kg, time 7 day
MG-63 [4] = experiment: Antitumor activity against human MG-63 cells xenografted in female BALB/c mouse model assessed as incomplete nuclei appearance in tumor tissue treated via oral gavage administered once a day for 3 weeks by HE staining analysis; type: functional, cell-based; settings: dose 10-60 mg/kg
MG-63 [5] = experiment: […] inhibition of TRF2 expression in human MG-63 cells at 4 uM measured upto 12 hrs measured after drug washout by Western blot analysis; type: functional, cell-based
MG-63 [6] = experiment: Antitumor activity against human MG-63 cells xenografted in female BALB/c mouse model assessed as upregulation of gamma-H2AX in tumor treated via oral gavage administered once a day for 3 weeks by IHC analysis; type: functional, cell-based; settings: dose 10-60 mg/kg
[7] = Toxicity in female BALB/c mouse model xenografted with human MG-63 cells assessed as drug tolerance at 10 to 60 mg/kg, via oral gavage administered once a day for 3 weeks; type: organism-based; settings: in vivo, 504 h, dose 10-60 mg/kg
MG-63 [8] = experiment: Induction of apoptosis in human MG-63 cells assessed as viable cells at 2 uM measured after 48 hrs annexin-V and propidium iodide staining based flow cytometry analysis (reference value: 90.7%); type: functional; settings: read-out: Activity
U2OS [9] = experiment: Antiproliferative activity against human U2OS cells assessed as reduction in cell viability at 2 to 4 uM measured for 8 days by PDL assay; type: functional, cell-based; settings: dose 2-4 µM, time 8.0 day
U2OS [10] = experiment: Induction of DNA damage in human U2OS cells assessed as upregulation of gamma-H2AX level by Immunofluorescence based FISH assay; type: functional, cell-based; settings: dose 2-4 µM
MG-63 [11] = experiment: Induction of apoptosis in human MG-63 cells assessed as reduction in TRF2 foci at 2 to 4 microM by Immunofluorescence based FISH assay; type: functional, cell-based; settings: dose 2-4 µM
MG-63 [12] = experiment: Induction of DNA damage response in human MG-63 cells assessed as telomere dysfunction by measuring telomere length shortening at 2 to 4 uM by Immunofluorescence based FISH assay; type: functional, cell-based; settings: dose 2-4 µM
U2OS [13] = experiment: Downregulation of TRF expression levels in human U2OS cells measured after 48 hrs by Western blot analysis; type: functional, cell-based; settings: dose 2-4 µM
MG-63 [14] = experiment: Downregulation of TRF expression levels in human MG-63 cells measured after 48 hrs by Western blot analysis; type: functional, cell-based; settings: dose 2-4 µM
[15] = Toxicity in female BALB/c mouse model xenografted with human MG-63 cells assessed as effect on body weight at 10 to 60 mg/kg, via oral gavage administered once a day for 3 weeks; type: organism-based; settings: in vivo, 504 h, dose 10-60 mg/kg
[16] = Acute toxicity in mouse assessed as creatinine (Cr) level in serum at 30 to 90 mg/kg, po single dose measured for 7 days; type: organism-based; settings: in vivo, 168 h, dose 30-90 mg/kg, time 7 day
MG-63 [17] = experiment: Induction of DNA damage in human MG-63 cells assessed as upregulation of gamma-H2AX level by Immunofluorescence based FISH assay; type: functional, cell-based; settings: dose 2-4 µM
U2OS [18] = experiment: Induction of DNA damage in human U2OS cells assessed as increase in telomere dysfunction-foci at 4 uM by Immunofluorescence based FISH assay; type: functional, cell-based
MG-63 [19] = experiment: Induction of DNA damage in human MG-63 cells assessed as increase in telomere dysfunction-foci at 4 uM by Immunofluorescence based FISH assay; type: functional, cell-based
MG-63 [20] = experiment: Induction of DNA damage in human MG-63 cells assessed as increase in 53BP1 foci by Immunofluorescence based FISH assay; type: functional, cell-based; settings: dose 2-4 µM
[21] = Acute toxicity in mouse assessed as aspartate transaminase level (AST) level in serum at 30 to 90 mg/kg, po single dose measured for 7 days; type: organism-based; settings: in vivo, 168 h, dose 30-90 mg/kg, time 7 day
U2OS [22] = experiment: Induction of apoptosis in human U2OS cells assessed as reduction in TRF2 foci at 2 to 4 microM by Immunofluorescence based FISH assay; type: functional, cell-based; settings: dose 2-4 µM
U2OS [23] = experiment: Induction of apoptosis in human U2OS cells assessed as viable cells at 4 uM measured after 48 hrs annexin-V and propidium iodide staining based flow cytometry analysis (reference value: 89.2%); type: functional; settings: read-out: Activity
[24] = Cytotoxicity against […] MLO-Y4 cells assessed as cell viability incubated for 48 hrs by MTT assay; type: toxicity, cell-based; settings: mouse
[25] = Acute toxicity in mouse assessed as alanine aminotransferase level (ALT) level in serum at 30 to 90 mg/kg, po single dose measured for 7 days; type: organism-based; settings: in vivo, 168 h, dose 30-90 mg/kg, time 7 day
U2OS [26] = experiment: Induction of apoptosis in human U2OS cells assessed as reduction in colocalization of TRF2 with telomere at 2 to 4 microM by Immunofluorescence based FISH assay; type: functional, cell-based; settings: dose 2-4 µM
[27] = target: T1, Telomeric repeat-binding factor 2 (Homo sapiens) (UniProt Q15554); experiment: Induction of thermal stabilization of TRF2 TRFH domain in human MG-63 cells at 46 to 55 degC incubated for 4 hrs by cellular thermal shift assay (CESTA) based Western blot analysis; type: cell-based
T1 sequence (whole entry): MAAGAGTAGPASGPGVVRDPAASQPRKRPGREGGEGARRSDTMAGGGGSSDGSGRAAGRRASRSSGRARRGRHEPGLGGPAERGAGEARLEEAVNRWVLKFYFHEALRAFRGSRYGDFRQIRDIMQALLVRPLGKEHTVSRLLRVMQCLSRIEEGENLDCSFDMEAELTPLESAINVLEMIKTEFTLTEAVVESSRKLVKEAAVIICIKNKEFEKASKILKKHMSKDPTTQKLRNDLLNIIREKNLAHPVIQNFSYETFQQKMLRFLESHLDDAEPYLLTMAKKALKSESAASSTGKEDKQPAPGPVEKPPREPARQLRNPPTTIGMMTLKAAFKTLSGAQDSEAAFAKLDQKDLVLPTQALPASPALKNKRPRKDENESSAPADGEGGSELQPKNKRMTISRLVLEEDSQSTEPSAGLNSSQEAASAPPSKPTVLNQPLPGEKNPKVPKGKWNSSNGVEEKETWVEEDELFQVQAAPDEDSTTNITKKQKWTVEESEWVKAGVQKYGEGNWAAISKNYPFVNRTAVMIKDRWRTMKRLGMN

MG-63 [28] = experiment: Induction of apoptosis in human MG-63 cells assessed as reduction in colocalization of TRF2 with telomere at 2 to 4 microM by Immunofluorescence based FISH assay; type: functional, cell-based; settings: dose 2-4 µM
MG-63 [29] = experiment: Induction of apoptosis in human MG-63 cells assessed as late apoptotic cells at 2 uM measured after 48 hrs annexin-V and propidium iodide staining based flow cytometry analysis (reference value: 7.71%); type: functional
MG-63 [30] = experiment: Antitumor activity against human MG-63 cells xenografted in female BALB/c mouse model assessed as tumour growth suppression at 10 to 60 mg/kg, via oral gavage administered once a day for 3 weeks; type: functional, organism-based; settings: dose 10-60 mg/kg
U2OS [31] = experiment: Induction of apoptosis in human U2OS cells assessed as late apoptotic cells at 2 uM measured after 48 hrs annexin-V and propidium iodide staining based flow cytometry analysis (reference value: 5.94%); type: functional
U2OS [32] = experiment: Induction of apoptosis in human U2OS cells assessed as late apoptotic cells at 4 uM measured after 48 hrs annexin-V and propidium iodide staining based flow cytometry analysis (reference value: 5.94%); type: functional

COc1cc(OC)c(C(=O)/C=C/c2cccc(Br)c2)c(OC)c1
Activity (U2OS [1]): Dose-dependent-effect
Activity (MG-63 [2]): 2.69%
Activity [3]: Non-toxic
Activity (MG-63 [4]): Dose-dependent-effect
Activity (MG-63 [5]): Active; Returned To Control Levels Within 4 Hrs
Activity (MG-63 [6]): Dose-dependent-effect; Compound Showed Significantly Stronger Effect Than Ar And Fkb04
Activity [7]: Non-toxic
viability at 2 µM (MG-63 [8]): 47.9%
Activity (U2OS [9]): Active
Activity (U2OS [10]): Dose-dependent-effect
Activity (MG-63 [11]): Active
Activity (MG-63 [12]): Dose-dependent-effect
Activity (U2OS [13]): Dose-dependent-effect
Activity (MG-63 [14]): Dose-dependent-effect
Activity [15]: Non-toxic
Activity [16]: Non-toxic
Activity (MG-63 [17]): Dose-dependent-effect
Activity (U2OS [18]): Active
Activity (MG-63 [19]): Active
Activity (MG-63 [20]): Dose-dependent-effect
Activity [21]: Non-toxic
Activity (U2OS [22]): Active
viability at 4 µM (U2OS [23]): 52.2%
IC50 at 48 h [24]: 12.3 µM
Activity [25]: Non-toxic
Activity (U2OS [26]): Active
Activity [27]: Active
Activity (MG-63 [28]): Active
Activity (MG-63 [29]): 38.2%
Activity (MG-63 [30]): Active; Stronger Than Control Drugs
Activity (U2OS [31]): 18.3%
Activity (U2OS [32]): 16.3%
